Experiment: In vivo biodistribution of ^225Ac complexes after intravenous injection
Parameters: species or system C57BL/6 mice
Procedure: In Vivo Biodistribution of ^225Ac Complexes of Macropa and DOTA. All experiments were approved by the Institutional Animal Care Committee (IACC) of the University of British Columbia and were performed in accordance with the Canadian Council on Animal Care Guidelines. A total of 9 female C57BL/6 mice (6-8 weeks old, 20-25 g) were used for the biodistribution study of each radiometal complex, n=3 for each time point.
Macropa (100 μL of a 1 mg/mL solution in NH4OAc) was diluted with 387 μL of NH4OAc (1 M, pH 7), and an aliquot (203 μL) of ^225Ac(NO3)3 (˜157 kBq) was then added; the pH of this solution was adjusted to 6.5-7 by the addition of 1 M NaOH (210 μL, trace metal grade). After 5 min at ambient temperature, the reaction solution was analyzed by TLC (0.4 M pH 4 sodium citrate as the eluent), which confirmed >95% radiochemical yield. The reaction was allowed to proceed overnight, and the radiochemical yield was again confirmed to be >95% the following morning. At this time, mice were anesthetized by 2% isoflurane, and approximately 100 μL (10-15 kBq) of the [^225Ac(macropa)]^+ complex were injected into the tail vein of each mouse. After injection, mice were allowed to recover and roam freely in their cages, and were euthanized by CO2 inhalation at 15 min, 1 h, or 5 h (n=3 at each time point) post-injection. Blood was collected by cardiac puncture and placed into an appropriate test tube for scintillation counting. Tissues collected included heart, liver, kidneys, lungs, small intestine, large intestine, brain, bladder, spleen, stomach, pancreas, bone, thyroid, tail, urine, and feces. Tissues were weighed and then counted with a calibrated gamma counter (Packard, Cobra II model 5002) using three energy windows: 60-120 keV (window A), 180-260 keV (window B), and 400-480 keV (window C). Counting was performed both immediately after sacrifice and after 7 days; counts were decay corrected from the time of injection and then converted to the percentage of injected dose (% ID) per gram of tissue (% ID/g). No differences were noted between the data; therefore, the biodistributions are reported using the data acquired immediately using window A.
The biodistribution studies of [^225Ac(DOTA)]^− and ^225Ac(NO3)3 were carried out as described above for [^225Ac(macropa)]^+, with the following modifications. [^225Ac(DOTA)]^− was prepared by adding ^225Ac(NO3)3 (338 μL, 1.1 MBq) to a solution of DOTA (100 μg, 20 mg/mL in H2O) in NH4OAc (467 μL, 0.15 M, pH 7). The pH of the solution was adjusted to 7 using NH4OAc (150 μL, 1 M, pH 7) and the solution was heated at 85° C. for 45 min. RCY>99% was confirmed by TLC as described above. [^225Ac(DOTA)]^− was diluted with saline to a final concentration of 0.05 MBq/100 μL, and 100 μL were injected into each mouse. ^225Ac(NO3)3 (˜58 μL, 0.4 MBq) was diluted and injected in the same manner as [^225Ac(DOTA)]^−. One mouse that was to be euthanized at the 5 h time point in the [^225Ac(DOTA)]^− study died shortly after injection. In the same manner, one mouse that was to be euthanized at the 1 h time point in the ^225Ac(NO3)3 study died.
The in vivo stability [^225Ac(macropa)]^+ was examined by comparing its biodistribution to those of ^225Ac(NO3)3 and [^225Ac(DOTA)]^−. C57BL/6 mice were injected via tail vein with 10-50 kBq of each radiometal complex and were sacrificed after 15 min, 1 h, or 5 h. The amount of ^225Ac retained in each organ was quantified by gamma counting and reported as the percent of injected dose per gram of tissue (% ID/g). The results of these studies are compiled in Tables 1-3. Inadequate stability of an ^225Ac complex leading to the loss of radioisotope in vivo is manifested by the accumulation of ^225Ac in the liver, spleen, and bone of mice.^[11,12,32] […] The biodistribution profile of [^225Ac(macropa)]^+ (FIG. 3B) differs markedly from that of ^225Ac(NO3)3. […]

[1] = 15 min after i.v. injection, energy window A (60-120 keV)
[2] = 15 min after i.v. injection, energy window B (180-260 keV)
[3] = 15 min after i.v. injection, energy window C (400-480 keV)
[4] = 1 h after i.v. injection, energy window A (60-120 keV)
[5] = 1 h after i.v. injection, energy window B (180-260 keV)

O=C([O-])c1cccc(CN2CCOCCOCCN(Cc3cccc(C(=O)[O-])n3)CCOCCOCC2)n1.[225Ac+3] [[^225Ac(macropa)]^+]
% ID/g in bladder [1]: 46.74 % ID/g | % ID/g in blood [1]: 5.11 % ID/g | % ID/g in bone (femur + joint) [1]: 2.52 % ID/g | % ID/g in brain [1]: 0.26 % ID/g | % ID/g in feces [1]: 0.91 % ID/g | % ID/g in heart [1]: 2.19 % ID/g | % ID/g in kidneys [1]: 27.55 % ID/g | % ID/g in large intestines [1]: 2.40 % ID/g | % ID/g in liver [1]: 2.28 % ID/g | % ID/g in lungs [1]: 5.98 % ID/g | % ID/g in pancreas [1]: 1.46 % ID/g | % ID/g in small intestines [1]: 2.64 % ID/g | % ID/g in spleen [1]: 2.52 % ID/g | % ID/g in stomach [1]: 2.97 % ID/g | % ID/g in tail [1]: 8.84 % ID/g | % ID/g in thyroids [1]: 28.23 % ID/g | % ID/g in urine [1]: 1378.82 % ID/g | % ID/g in bladder [2]: 47.64 % ID/g | % ID/g in blood [2]: 5.23 % ID/g | % ID/g in bone (femur + joint) [2]: 2.69 % ID/g | % ID/g in brain [2]: 0.23 % ID/g | % ID/g in feces [2]: 1.04 % ID/g | % ID/g in heart [2]: 2.39 % ID/g | % ID/g in kidneys [2]: 27.86 % ID/g | % ID/g in large intestines [2]: 2.53 % ID/g | % ID/g in liver [2]: 2.17 % ID/g | % ID/g in lungs [2]: 5.83 % ID/g | % ID/g in pancreas [2]: 1.63 % ID/g | % ID/g in small intestines [2]: 2.59 % ID/g | % ID/g in spleen [2]: 2.55 % ID/g | % ID/g in stomach [2]: 3.29 % ID/g | % ID/g in tail [2]: 9.39 % ID/g | % ID/g in thyroids [2]: −2.22 % ID/g | % ID/g in urine [2]: 1541.60 % ID/g | % ID/g in bladder [3]: 64.68 % ID/g | % ID/g in blood [3]: 6.49 % ID/g | % ID/g in bone (femur + joint) [3]: 3.74 % ID/g | % ID/g in brain [3]: 0.17 % ID/g | % ID/g in feces [3]: 1.26 % ID/g | % ID/g in heart [3]: 2.87 % ID/g | % ID/g in kidneys [3]: 33.46 % ID/g | % ID/g in large intestines [3]: 3.02 % ID/g | % ID/g in liver [3]: 2.72 % ID/g | % ID/g in lungs [3]: 7.55 % ID/g | % ID/g in pancreas [3]: 3.00 % ID/g | % ID/g in small intestines [3]: 3.46 % ID/g | % ID/g in spleen [3]: 3.79 % ID/g | % ID/g in stomach [3]: 3.45 % ID/g | % ID/g in tail [3]: 11.75 % ID/g | % ID/g in thyroids [3]: −6.46 % ID/g | % ID/g in urine [3]: 2387.66 % ID/g | % ID/g in bladder [4]: 6.23 % ID/g | % ID/g in blood [4]: 0.40 % ID/g | % ID/g in bone (femur + joint) [4]: 0.31 % ID/g | % ID/g in brain [4]: 0.12 % ID/g | % ID/g in feces [4]: 0.28 % ID/g | % ID/g in heart [4]: 0.31 % ID/g | % ID/g in kidneys [4]: 13.36 % ID/g | % ID/g in large intestines [4]: 0.36 % ID/g | % ID/g in liver [4]: 0.75 % ID/g | % ID/g in lungs [4]: 0.51 % ID/g | % ID/g in pancreas [4]: 0.19 % ID/g | % ID/g in small intestines [4]: 1.10 % ID/g | % ID/g in spleen [4]: 0.51 % ID/g | % ID/g in stomach [4]: 0.41 % ID/g | % ID/g in tail [4]: 1.82 % ID/g | % ID/g in thyroids [4]: 3.18 % ID/g | % ID/g in urine [4]: 489.11 % ID/g | % ID/g in bladder [5]: 5.92 % ID/g | % ID/g in blood [5]: 0.39 % ID/g | % ID/g in bone (femur + joint) [5]: 0.17 % ID/g | % ID/g in brain [5]: 0.12 % ID/g | % ID/g in feces [5]: 0.27 % ID/g | % ID/g in heart [5]: 0.20 % ID/g | % ID/g in kidneys [5]: 12.97 % ID/g | % ID/g in large intestines [5]: 0.22 % ID/g | % ID/g in liver [5]: 0.70 % ID/g | % ID/g in lungs [5]: 0.54 % ID/g

— patent US11554182B2, “Macrocyclic complexes of alpha-emitting radionuclides and their use in targeted radiotherapy of cancer” (CORNELL UNIVERSITY, priority 2017, dated 2023)
